Molecules are shown by their SMILES. Converted amounts (≈) assume the structure as drawn.

56 compounds from US6531496B1 (Bayer Aktiengesellschaft, priority 1999, dated 2003) can be followed below.

Series [1] in a line: logP by HPLC (EEC Directive 79/831 Annex V. A8, gradient method). In kind it is physicochemical.
The next series deals with Plasmopara viticola. As to the kind of experiment: Plasmopara test (grapevine)/protective. In kind it is in vivo. The following applies: 144 h, protective, evaluated 6 days after inoculation, read-out: Efficacy in %. How it is done:
Plasmopara Test (Grapevine)/Protective Solvent: 47 parts by weight of acetone Emulsifier: 3 parts by weight of alkylaryl polyglycol ether To prepare a suitable active compound preparation, 1 part by weight of active compound is mixed with the stated amounts of solvent and emulsifier, and the concentrate is diluted with water to the desired concentration. To test for protective activity, young plants are sprayed with the active compound preparation at the application rate stated. After the spray coating has dried on, the plants are inoculated with an aqueous spore suspension of Plasmopara viticola and then remain for 1 day in an incubation cabinet at approx. 20° C. and a relative atmospheric humidity of 100%. […] The plants are then moistened and placed in an incubation cabinet for 1 day.

The next series has as its system Venturia inaequalis. Kind of series: Venturia test (apple)/protective. It is filed as in vivo. The following applies: 288 h, protective, evaluated 12 days after inoculation, read-out: Efficacy in %. How it is done:
Venturia Test (Apple)/Protective Solvent: 47 parts by weight of acetone Emulsifier: 3 parts by weight of alkylaryl polyglycol ether To prepare a suitable active compound preparation, 1 part by weight of active compound is mixed with the stated amounts of solvent and emulsifier, and the concentrate is diluted with water to the desired concentration. To test for protective activity, young plants are sprayed with the active compound preparation at the application rate stated. After the spray coating has dried on, the plants are inoculated with an aqueous conidial suspension of the apple scab pathogen Venturia inaequalis and then remain for 1 day in an incubation cabinet at approx. 20° C. and 100% relative atmospheric humidity.

The next series has as its system Aspergillus Niger. Kind of series: Minimum inhibitory concentration on malt extract agar. It is filed as cell-based. The following applies: 2 weeks at 28° C. On the procedure: (§1) To confirm the activity against fungi (Penicillium brevicaule, Chaetomium globosum, Aspergillus Niger), the minimum inhibitory concentrations (MICs) of agents according to the invention are determined:
(§2) Active compounds according to the invention are added in concentrations of from 0.1 mg/l to 5 000 mg/l to an agar prepared using malt extract. […] The MIC is the lowest concentration of active compound at which no growth whatsoever by the microbial species used occurs; it is indicated in the table which follows.

For another series, the system named is Chaetomium globosum. The series is described as above. In kind it is cell-based. Particulars: 2 weeks at 28° C. How it is done:
as §1, §2

For a further series, the system named is Penicillium brevicaule. The description is as above. It is filed as cell-based. The following applies: 2 weeks at 28° C.; for MIC: Penicillium, 336 h, read-out: Minimum inhibitory concentrations Penicillium brevicaule. How it is done:
as §1, §2

The mark [2] stands for this setting: gradient of acetonitrile/0.1% aqueous phosphoric acid, HPLC, gradient method, acetonitrile/0.1% aqueous phosphoric acid, Table 1.
The mark [3] stands for this setting: HPLC, gradient method, acetonitrile/0.1% aqueous phosphoric acid, Table 1.
The mark [4] stands for this setting: Table 3, intermediates of formula (II-a).

The chromatographic logP is a lipophilicity value derived from retention on a column. Higher therefore signals a more lipophilic compound. In series [1] (Table 2), `O=S1(=O)CSC(Oc2ccc3oc(=S)sc3c2)=N1` [Example 141] gave a chromatographic logP of 2.64. Besides, the pest or weed control at 250 g/ha with Plasmopara viticola and with Venturia inaequalis was no less than 90% each time.
As for `O=S1(=O)CSC(Oc2ccccc2)=N1` [Example 1], the MIC is 100 µg/mL (≈ 436 µM) with Aspergillus Niger (Aspergillus niger, 336 h, read-out: Minimum inhibitory concentrations Aspergillus Niger); 100 µg/mL (≈ 436 µM) in the series on Chaetomium globosum (Chaetomium globosum, 336 h, read-out: Minimum inhibitory concentrations Chaetomium globosum); 100 µg/mL (≈ 436 µM) in the series with Penicillium brevicaule.
`C=CCO/N=C(/c1ccccc1)c1cccc(OC2=NS(=O)(=O)CS2)c1` [Example 42]: the chromatographic logP in series [1] (setting [2]) was found to be 3.72. For the same compound, the pest or weed control at 250 g/ha in the series on Plasmopara viticola was no less than 90%.
In series [1] (setting [2]), `O=S1(=O)CSC(Oc2ccccc2F)=N1` [Example 110] showed a chromatographic logP of 2.02. Moreover, the pest or weed control at 250 g/ha in the series on Venturia inaequalis was no less than 90%.
In the case of `O=S1(=O)CSC(Oc2ccc(Cl)cc2Cc2ccccc2)=N1` [Example 99], the pest or weed control at 250 g/ha in the series with Plasmopara viticola is no less than 90%.
On the same count and under the same terms, in the case of `CC(C)(C)c1ccc(OC2=NS(=O)(=O)CS2)cc1` [Example 98] it was no less than 90%; in that of `O=S1(=O)CSC(Oc2c(Cl)cccc2Cl)=N1` [Example 102], no less than 90%.
As to `O=S1(=O)CSC(Oc2cccc(F)c2)=N1` [Example 111], in series [1] (setting [2]), the chromatographic logP amounted to 2.05. Further, the pest or weed control at 250 g/ha in the series with Venturia inaequalis is no less than 90%.
In series [1] (setting [2]), `O=S1(=O)CSC(Oc2ccccc2OC(F)(F)F)=N1` [Example 133] gave a chromatographic logP of 2.63. Also, the pest or weed control at 250 g/ha in the series with Venturia inaequalis was no less than 90%.
As to `Cc1cccc(OC2=NS(=O)(=O)CS2)c1` [Example 106], the pest or weed control at 250 g/ha with Plasmopara viticola and with Venturia inaequalis was no less than 90% throughout.
Turning to `CC(C)(C)c1cccc(OC2=NS(=O)(=O)CS2)c1` [Example 114], in series [1] (setting [2]), the chromatographic logP is 3.27. The pest or weed control at 250 g/ha in the series on Venturia inaequalis is no less than 90%.
In turn, `Cc1ccc(Cl)c(OC2=NS(=O)(=O)CS2)c1` [Example 115] came in with a chromatographic logP in series [1] (setting [2]) of 2.62. The pest or weed control at 250 g/ha with Venturia inaequalis is no less than 90%.
For the compound `O=S1(=O)CSC(Oc2cccc(Cl)c2Cl)=N1` [Example 101], the pest or weed control at 250 g/ha with Plasmopara viticola and with Venturia inaequalis was no less than 90% each time.
On to `Cc1ccc(OC2=NS(=O)(=O)CS2)cc1` [Example 105], for which the pest or weed control at 250 g/ha with Plasmopara viticola and in the series with Venturia inaequalis was no less than 90% in each case.
As to `O=[N+]([O-])c1ccccc1OC1=NS(=O)(=O)CS1` [Example 128], the chromatographic logP in series [1] (setting [2]) stood at 1.84. Besides, the pest or weed control at 250 g/ha with Plasmopara viticola was no less than 90%.
Turning to `Cc1cc(Cl)cc(OC2=NS(=O)(=O)CS2)c1` [Example 92], the “Minimum inhibitory concentrations Aspergillus Niger” value in the series with Aspergillus Niger was 100 ppm. The “Minimum inhibitory concentrations Chaetomium globosum” value in the series with Chaetomium globosum is 100 ppm. Also, the “Minimum inhibitory concentrations Penicillium brevicaule” value in the series on Penicillium brevicaule worked out at 20 ppm.
With `O=S1(=O)CSC(Oc2ccc(Cl)cc2Cl)=N1` [Example 96], the pest or weed control at 250 g/ha in the series on Plasmopara viticola and in the series on Venturia inaequalis was no less than 90% in each case.
In the case of `O=C(c1ccccc1)c1cccc(OC2=NS(=O)(=O)CS2)c1` [Example 27], the chromatographic logP in series [1] (setting [2]) was determined as 2.66. Moreover, the pest or weed control at 250 g/ha in the series with Plasmopara viticola and with Venturia inaequalis was no less than 90% in each case.
Compound `CC(=O)c1ccc(OC2=NS(=O)(=O)CS2)cc1` [Example 21] gave a chromatographic logP in series [1] (setting [2]) of 1.69. Also, the pest or weed control at 250 g/ha with Plasmopara viticola is no less than 90%.
On the same counts, the results for `CO/N=C(/c1ccccc1)c1cccc(OC2=NS(=O)(=O)CS2)c1` [Example 41] are 3.28 and no less than 90%.
The logP is a log measure of how a compound divides between an organic and an aqueous phase. `Cc1nc(Sc2ccc(OC3=NS(=O)(=O)CS3)cc2)sc1C` [Example 62] returned a logP in series [1] (setting [3]) of 2.91.
Still for that read-out and setting: in the case of `CC(=Cc1cccc(OC2=NS(=O)(=O)CS2)c1)[N+](=O)[O-]` (mixture of isomers) [Example 89] it was 2.46; in that of `O=[N+]([O-])c1ccc(/C=C/c2ccc(OC3=NS(=O)(=O)CS3)cc2)cc1` [Example 50], 3.3.
As for `CSC1=NS(=O)(=O)CC(C)(c2ccccc2)S1` (stereo not shown) [IV-5], in series [1] (Table 4, starting materials of formula (IV)), the chromatographic logP amounted to 2.65.
Compound `CC1(C)Cc2cccc(OC3=NS(=O)(=O)CS3)c2O1` [Example 158] showed a chromatographic logP in series [1] (Table 2) of 2.66.
Turning to `O=S1(=O)CSC(Oc2ccc(N=Nc3ccccc3)cc2Cl)=N1` [Example 48], in series [1] (setting [3]), the logP was 3.96.
Same read-out and setting: to `O=S1(=O)CSC(Oc2ccc(C3=Nc4ccccc4SC(c4ccccc4)C3)cc2)=N1` (stereo not shown) [Example 73] belongs 4.19; to `CON=C(C(=O)NCc1ccccc1)c1ccccc1OC1=NS(=O)(=O)CS1` [Example 9], 2.13; to `O=S1(=O)CSC(Oc2ccccc2CC2=NOCCO2)=N1` [Example 6], 1.69.
Still for that read-out and setting: in the case of `CSc1nnc(C(C)(C)C)c(=O)n1N=Cc1cccc(OC2=NS(=O)(=O)CS2)c1` [Example 69] it was 3.43.
In the case of `O=S1(=O)CSC(Oc2cccc(Br)c2)=N1` [Example 119], in series [1] (setting [2]), the chromatographic logP was found to be 2.47. The pest or weed control at 250 g/ha in the series with Plasmopara viticola is no less than 90%.
Compound `CC1(c2ccccc2)CS(=O)(=O)N=C(Cl)S1` (stereo not shown) [II-a-2] gave a chromatographic logP in series [1] (setting [4]) of 2.75.
The compound `O=S1(=O)CSC(Oc2cccc(OCCO)c2)=N1` [Example 91] yielded a logP in series [1] (setting [3]) of 1.37.
As for `Cc1ccc(OC2=NS(=O)(=O)CS2)c(C)c1` [Example 127], the chromatographic logP in series [1] (setting [2]) came out at 2.65.
On to `CON=C(C)c1ccc(OC2=NS(=O)(=O)CS2)c(C)c1` [Example 16], for which the logP in series [1] (setting [3]) is on record as 2.88.
Turning to `O=S1(=O)CSC(Oc2ccc(N=Nc3ccccc3)cc2)=N1` [Example 47], the logP in series [1] (setting [3]) is reported as 3.47.
`C/C(=N/OC(C)(C)C)c1cccc(OC2=NS(=O)(=O)CS2)c1` [Example 28]: the chromatographic logP in series [1] (setting [2]) was found to be 3.94. Besides, the pest or weed control at 250 g/ha in the series with Plasmopara viticola and with Venturia inaequalis was no less than 90% each time.
`C/C(=N/OC(C)(C)C)c1ccc(OC2=NS(=O)(=O)CS2)cc1` [Example 24]: in series [1] (setting [2]), the chromatographic logP is 3.98. The pest or weed control at 250 g/ha in the series on Venturia inaequalis is no less than 90%.
In the case of `CCS(=O)(=O)c1ccc(OC2=NS(=O)(=O)CS2)cc1` [Example 59], the logP in series [1] (setting [3]) amounted to 1.54.
As to `O=C1Cc2cc(OC3=NS(=O)(=O)CS3)ccc2O1` [Example 143], the chromatographic logP in series [1] (Table 2) stood at 0.48.
In series [1] (setting [4]), `O=S1(=O)CC(c2ccccc2)SC(Cl)=N1` (stereo not shown) [II-a-1] displayed a chromatographic logP of 2.63.
Regarding `CC(C)(C)ON=C(c1ccccc1)c1cccc(OC2=NS(=O)(=O)CS2)c1` [Example 43], the logP in series [1] (setting [3]) stood at 4.4.
The same measure, in the same setting: to `CON=C(C(N)=O)c1ccccc1OC1=NS(=O)(=O)CS1` [Example 11] belongs 1.33; to `CCCCCC(O)c1cccc(OC2=NS(=O)(=O)CS2)c1` (racemic) [Example 82], 2.87.
In the case of `O=S1(=O)CSC(Oc2ccccc2Cl)=N1` [Example 95], the pest or weed control at 250 g/ha in the series with Plasmopara viticola and with Venturia inaequalis was no less than 90% throughout.
In series [1] (setting [3]), `O=S1(=O)CSC(Oc2ccc(-c3nnco3)cc2)=N1` [Example 35] displayed a logP of 1.36.
Take `Cc1cc(Cl)cc(OC2=NS(=O)(=O)CS2)c1` [Example 1, 3-(3-chloro-5-methylphenoxy)-1λ^6,4,2-dithiazole-1,1(5H)-dione]: the MIC with Penicillium brevicaule is 10 to 100 µg/mL (≈ 36 to 360 µM). Also, the pest or weed control at 250 g/ha in the series on Plasmopara viticola and in the series on Venturia inaequalis was no less than 90% each time.
The compound `O=S1(=O)CSC(Oc2ccccc2Br)=N1` [Example 108] registered a chromatographic logP in series [1] (setting [2]) of 2.3. Moreover, the pest or weed control at 250 g/ha in the series with Venturia inaequalis is no less than 90%.
For the compound `O=S1(=O)CSC(Oc2ccccc2C(F)(F)F)=N1` [Example 131], the logP in series [1] (setting [3]) came out at 2.49.
On the same count and under the same terms, to `O=S1(=O)CSC(Oc2cccc(C(=NOCc3ccccc3)c3ccccc3)c2)=N1` [Example 44] belongs 4.15.
The same measure, in the same setting: to `COc1ccc(OC2=NS(=O)(=O)CS2)cc1OC` [Example 117] belongs 1.82.
On the same count and under the same terms, in the case of `COC(=O)c1ccc(OC2=NS(=O)(=O)CS2)cc1C(=O)OC` [Example 32] it was 1.93; in that of `O=S1(=O)CSC(Oc2ccc(-c3nc4ccccc4o3)cc2)=N1` [Example 45], 2.88.
Turning to `COC=C(C(=O)OC)c1ccccc1OC1=NS(=O)(=O)CS1` [Example 5], the logP in series [1] (setting [3]) came out at 2.03.
`CC1(C)Oc2cccc(OC3=NS(=O)(=O)CS3)c2O1` [Example 150] returned a chromatographic logP in series [1] (Table 2) of 2.6.
The same measure, in the same setting: to `O=S1(=O)CSC(Oc2ccc3c(c2)CCC3)=N1` [Example 157] belongs 2.8.
